Source: patent US10829466B2, “Stilbene derivative and preparation method thereof” (BEIJING INSTITUTE OF TECHNOLOGY, priority 2015, dated 2020)
Entries after “also recorded” stand apart in the source; their conditions may differ.

Legend:
[1] = tested on: neurogenesis in rat hippocampus; assay: Detection of neurogenesis in rat hippocampus by BrdU labeling (DAB immunohistochemistry); type: in vivo; conditions: under the test conditions of the embodiments, same dose
Text: Example 36: Detection of Neurogenesis in Rat Hippocampus by BrdU (5-Bromo-2-deoxy Uridine, 5-bromodeoxyuridine) Labeling
Experimental animals: 10-week-old SD male rats having a body weight of about 300 g are purchased. The rats are used in experiments one week after being adapted to the environment in an animal room. Experimental groups: control group, drug group. 2-3 rats per group. Experimental reagent: injection oil is used to dissolve a compound to be tested. Rates in the control group are injected with the same dose of dissolving oil.
Test method: intraperitoneal injection is carried out 28 days at the injection dose of 0.5 ml-1 ml each time. Dose: 4 mg/Kg.
1) marker injection: BrdU (dissolved in sterile saline solution at a concentration of 10 mg/mL) solution is injected intraperitoneally into rats. (For rats with different body weights, the injection dose of BrdU is 50 mg·Kg^−1, injection is carried out twice every 2 hour; the intraperitoneal injection 24 hours before anesthesia ends.
2) Anesthesia: Anesthesia is performed by intraperitoneal injection of sodium pentobarbital solution into rats. (For rats with different body weights, the injection dose of sodium pentobarbital is usually 70 mg·Kg^−1.)
3) Cardiac perfusion: cardiac perfusion with normal saline is performed according to a general method.
4) Taking of brain tissues: The heads of the rats are separated from the bodies with surgical forceps and scissors, and then the muscles and membrane tissues at the top of the skulls are removed and brains are then gently peeled from the skulls. The separated brains are soaked in 4% paraformaldehyde for 24-48 hours.
5) Dehydration of brain tissues: the fixed tissues are soaked with a 20% sucrose PBS solution for more than 72 hours, and then the brain tissues are soaked with a 30% sucrose PBS solution for more than 72 hours.
6) Frozen section: the brain tissues are cut into […] thick sections by a general coronal section procedure.
7) DAB immunohistochemistry step: DNA denaturation is carried out and the sections are transferred to a 24-well plate (pH 7.4) perfused with 0.1 M PBS. The brain sections are incubated with 1% H2O2 for 30 minutes to remove […]; the sections are then treated with a 2M HCl solution for 30 minutes at room temperature to denature them. After completion of the denaturation, the brain sections are immersed in a 0.1 M sodium borate (pH 8.5) solution for 5 minutes and rinsed twice; the brain sections are incubated in 0.5% PBST for 1 hour at room temperature, and then are blocked for 1 hour with a serum blocking solution on a shaker at room temperature, and the serum blocking solution is from the same source as a secondary antibody; the samples are treated on the shaker with a BrdU primary antibody overnight at 4° C., and the BrdU primary antibody is diluted with the blocking solution; the samples are incubated with the biotinylated secondary antibody IgG for 2 hours at room temperature; a C (ABC kit) solution is incubated at room temperature for 2 hours; finally, after 3 to 5 minutes of color development by the DAB kit, the samples are mounted by using a PVP mounting medium and then dried, and finally the experimental results are detected under a microscope.
The dose-effect relationships of different compounds is further tested according to the method of Example 36, and the compounds include WS-54 (E-4-isobutyrylamino-3′,4′-methylenedioxy-stilbene), WS-69 (E-4-Methylsulfonamino-3′,4′-methylenedioxy-stilbene), WS-70 (E-4-Benzamino-3′,4′-methylenedioxy-stilbene), and WS-74 (E-4-Cyclopropylformamino-3′,4′-methylenedioxy-stilbene).

[2] = tested on: neurogenesis in rat hippocampus; assay: BrdU and NeuN fluorescence double staining; type: in vivo
Method: Example 37: Experimental Procedure of BrdU and NeuN Fluorescence Double Staining
The samples are obtained in the same manner as an Example 34. First, the DNA denaturation is performed, and the sections are transferred to a HCl solution perfused with 2 N, and treated at 37° C. for 60 minutes to be denatured. After completion of the denaturation, the brain sections are immersed in a 0.1 M sodium borate (pH 8.5) solution for 5 minutes and rinsed twice; the brain sections are then blocked for 1 hour with a serum blocking solution on a shaker at room temperature, and the serum blocking solution is from the same source as a secondary antibody; the samples are treated on the shaker with BrdU (1:500, Millipore) and NeuN (1:500, Abcam) primary antibodies overnight at 4° C., and the primary antibodies are diluted with the blocking solution; the samples are incubated with fluorescent secondary antibodies goat anti-mouse and goat anti-rabbits at room temperature (1:50, Zhongshanjinqiao) for 2 hours at room temperature in a dark place; the samples are mounted by using a fluorescent anti-quenching PVP mounting medium and then dried, and finally the experimental results are detected under a microscope. Control group and drug group (low dose L, 2 mg/Kg; medium dose M, 4 mg/Kg).

HEK293 = assay: In vitro cytotoxicity experiment (MTT, cell survival); type: cell-based; conditions: HEK293, in vitro test, FIG. 3
Method: Example 35: In Vitro Cytotoxicity Experiment the Experimental Cell Line is HEK293
Cells are cultured in a 96-well plate at a cell concentration of 5000/well. After 24 hours of cell culture, the drug treatment is performed and the experiment is carried out on two groups: the control group is added with DMSO with the same concentration as that for the experimental group; in the experimental group, each compound is tested at three doses of low, medium and high doses (100 μM; 500 μM; 1000 μM), and five parallels are tested at each dose; in the blank group, a complete medium is added with a compound to be tested with the same concentration as that for the experimental group. Constant temperature incubation is carried out for 24 h in a CO2 incubator, MTT with a final concentration of 0.5 mg/mL is then added; 4 hours later, 200 μL of DMSO solution is added, and the absorbance is measured at 490 nm. The cell survival is calculated according to the absorbance; Survival %=(Average concentration−Blank concentration)/(Average control concentration−Blank concentration)*100%.
Reference is made to FIG. 3 which illustrates an in vitro cytotoxicity test chart of a novel stilbene derivative according to an example of embodiments of the present invention.

CC(=O)Nc1ccc(/C=C/c2ccc3c(c2)OCO3)cc1 [WS-6, E-4-acetylamino-3′,4′-methylenedioxy-stilbene]
neurogenesis activity (in words) [1]: better neurogenesis activity | dose relationship of NeuN+BrdU+ spots ([2]; 4 mg/Kg over 2 mg/Kg): can further enhance neurogenesis at the dose of 4 mg/Kg over the dose of 2 mg/Kg | BrdU and NeuN double staining: neurogenesis ([2]; low dose 2 mg/Kg and medium dose 4 mg/Kg, FIG. 9): can promote neurogenesis | neuronal cytotoxicity / neurotoxicity (in words) (HEK293): further reduced in neurotoxicity as compared with WS-61; also recorded: greatly reduced
